Results published in ChEMBL document CHEMBL4800722, “Data for DCP probe BI 605906” (2021).

How the values were obtained:
[1] = biological target: Ephrin type-A receptor 7 (Homo sapiens) (UniProt Q15375); details: Compound concentration 1.0 uM
[2] = biological target: Ephrin type-A receptor 6 (Homo sapiens) (UniProt Q9UF33); details: Compound concentration 1.0 uM
[3] = biological target: cGMP-dependent protein kinase 1 (Homo sapiens) (UniProt Q13976); details: Compound concentration 1.0 uM
[4] = biological target: Glycogen synthase kinase-3 beta (Homo sapiens) (UniProt P49841); assay: GSK3B DUNDEE kinase screen (BI); details: Compound concentration 10.0 uM
[5] = biological target: Mitogen-activated protein kinase kinase kinase 20 (Homo sapiens) (UniProt Q9NYL2); details: Compound concentration 1.0 uM
[6] = biological target: Serine/threonine-protein kinase BRSK2 (Homo sapiens) (UniProt Q8IWQ3); assay: BRSK2 Invitrogen Lab (UK) kinase screen (BI); details: Compound concentration 1.0 uM
[7] = biological target: Ribosomal protein S6 kinase alpha-6 (Homo sapiens) (UniProt Q9UK32); details: Compound concentration 1.0 uM
[8] = biological target: Activin receptor type-2B (Homo sapiens) (UniProt Q13705); details: Compound concentration 1.0 uM
[9] = biological target: Casein kinase I isoform alpha (Homo sapiens) (UniProt P48729); details: Compound concentration 1.0 uM
[10] = biological target: Vascular endothelial growth factor receptor 1 (Homo sapiens) (UniProt P17948); details: Compound concentration 1.0 uM
[11] = biological target: Calcium/calmodulin-dependent protein kinase type 1 (Homo sapiens) (UniProt Q14012); assay: CAMK1 DUNDEE kinase screen (BI); details: Compound concentration 10.0 uM
[12] = biological target: Protein kinase C iota type (Homo sapiens) (UniProt P41743); details: Compound concentration 1.0 uM
[13] = biological target: Serine/threonine-protein kinase MARK2 (Homo sapiens) (UniProt Q7KZI7)
[14] = tested on: PI3-kinase p110-alpha/p85-alpha (Homo sapiens), P27986+P42336 [E545K]; details: Compound concentration 1.0 uM
[15] = biological target: B1 bradykinin receptor (Homo sapiens) (UniProt P46663)
[16] = biological target: D(1B) dopamine receptor (Homo sapiens) (UniProt P21918); details: Compound concentration 10.0 uM
[17] = biological target: Serine/threonine-protein kinase Nek2 (Homo sapiens) (UniProt P51955); details: Compound concentration 1.0 uM
[18] = biological target: Cyclin-dependent kinase 4/cyclin D1 (Homo sapiens) (UniProt P11802+P24385); details: Compound concentration 1.0 uM
[19] = biological target: Atypical kinase COQ8A, mitochondrial (Homo sapiens) (UniProt Q8NI60); assay: ADCK3 Invitrogen Lab (UK) kinase screen (BI); details: Compound concentration 1.0 uM
[20] = biological target: Casein kinase I isoform delta (Homo sapiens) (UniProt P48730); details: Compound concentration 1.0 uM
[21] = biological target: Rhodopsin kinase GRK7 (Homo sapiens) (UniProt Q8WTQ7); details: Compound concentration 1.0 uM
[22] = biological target: Serine/threonine-protein kinase PAK 5 (Homo sapiens) (UniProt Q9P286); details: Compound concentration 1.0 uM
[23] = biological target: Rhodopsin kinase GRK1 (Homo sapiens) (UniProt Q15835); details: Compound concentration 1.0 uM
[24] = biological target: Ribosomal protein S6 kinase beta-1 (Homo sapiens) (UniProt P23443); assay: S6K1 DUNDEE kinase screen (BI); details: Compound concentration 10.0 uM
[25] = biological target: MAP kinase-activated protein kinase 5 (Homo sapiens) (UniProt Q8IW41); details: Compound concentration 1.0 uM
[26] = biological target: Dual specificity protein kinase CLK2 (Homo sapiens) (UniProt P49760); details: Compound concentration 1.0 uM
[27] = biological target: Phosphorylase b kinase gamma catalytic chain, skeletal muscle/heart isoform (Homo sapiens) (UniProt Q16816); assay: PHKG1 Invitrogen Lab (UK) kinase screen (BI); details: Compound concentration 1.0 uM
[28] = biological target: Cyclin-dependent kinase 14 (Homo sapiens) (UniProt O94921); assay: CDK14 (PFTK1)/CYC Invitrogen Lab (UK) kinase screen (BI); details: Compound concentration 1.0 uM
[29] = biological target: Serine/threonine-protein kinase pim-2 (Homo sapiens) (UniProt Q9P1W9); details: Compound concentration 1.0 uM
[30] = biological target: Muscarinic acetylcholine receptor M1 (Homo sapiens) (UniProt P11229); details: Compound concentration 10.0 uM
[31] = biological target: Histamine H4 receptor (Homo sapiens) (UniProt Q9H3N8); details: Compound concentration 10.0 uM
[32] = biological target: Serine/threonine-protein kinase Nek7 (Homo sapiens) (UniProt Q8TDX7); assay: NEK7 DUNDEE kinase screen (BI); details: Compound concentration 10.0 uM
[33] = biological target: Cyclin-C/Cyclin-dependent kinase 19 (Homo sapiens) (UniProt Q9BWU1+P24863); assay: CDK11/CYCLIN C Invitrogen Lab (UK) kinase screen (BI); assay type: protein-complex assay; details: Compound concentration 1.0 uM
[34] = biological target: Ribosomal protein S6 kinase alpha-4 (Homo sapiens) (UniProt O75676); details: Compound concentration 1.0 uM
[35] = biological target: Serine/threonine-protein kinase SIK2 (Homo sapiens) (UniProt Q9H0K1); assay: SNF1LK2 Invitrogen Lab (UK) kinase screen (BI); details: Compound concentration 1.0 uM
[36] = biological target: D(3) dopamine receptor (Homo sapiens) (UniProt P35462); details: Compound concentration 10.0 uM
[37] = biological target: Calcium/calmodulin-dependent protein kinase kinase 2 (Homo sapiens) (UniProt Q96RR4); details: Compound concentration 1.0 uM
[38] = biological target: Serine/threonine-protein kinase mTOR (Homo sapiens) (UniProt P42345)
[39] = biological target: Sodium-dependent dopamine transporter (Homo sapiens, UniProt Q01959); details: Compound concentration 10.0 uM
[40] = biological target: Mitogen-activated protein kinase kinase kinase 21 (Homo sapiens) (UniProt Q5TCX8); details: Compound concentration 1.0 uM
[41] = biological target: BDNF/NT-3 growth factors receptor (Homo sapiens) (UniProt Q16620); details: Compound concentration 1.0 uM
[42] = biological target: LIM domain kinase 1 (Homo sapiens) (UniProt P53667); details: Compound concentration 1.0 uM
[43] = biological target: Epidermal growth factor receptor (Homo sapiens) (UniProt P00533)
[44] = biological target: Serine/threonine-protein kinase WNK2 (Homo sapiens) (UniProt Q9Y3S1); assay: WNK2 Invitrogen Lab (UK) kinase screen (BI); details: Compound concentration 1.0 uM

Chain of Serine/threonine-protein kinase MARK2 (Homo sapiens) (Q7KZI7 whole entry): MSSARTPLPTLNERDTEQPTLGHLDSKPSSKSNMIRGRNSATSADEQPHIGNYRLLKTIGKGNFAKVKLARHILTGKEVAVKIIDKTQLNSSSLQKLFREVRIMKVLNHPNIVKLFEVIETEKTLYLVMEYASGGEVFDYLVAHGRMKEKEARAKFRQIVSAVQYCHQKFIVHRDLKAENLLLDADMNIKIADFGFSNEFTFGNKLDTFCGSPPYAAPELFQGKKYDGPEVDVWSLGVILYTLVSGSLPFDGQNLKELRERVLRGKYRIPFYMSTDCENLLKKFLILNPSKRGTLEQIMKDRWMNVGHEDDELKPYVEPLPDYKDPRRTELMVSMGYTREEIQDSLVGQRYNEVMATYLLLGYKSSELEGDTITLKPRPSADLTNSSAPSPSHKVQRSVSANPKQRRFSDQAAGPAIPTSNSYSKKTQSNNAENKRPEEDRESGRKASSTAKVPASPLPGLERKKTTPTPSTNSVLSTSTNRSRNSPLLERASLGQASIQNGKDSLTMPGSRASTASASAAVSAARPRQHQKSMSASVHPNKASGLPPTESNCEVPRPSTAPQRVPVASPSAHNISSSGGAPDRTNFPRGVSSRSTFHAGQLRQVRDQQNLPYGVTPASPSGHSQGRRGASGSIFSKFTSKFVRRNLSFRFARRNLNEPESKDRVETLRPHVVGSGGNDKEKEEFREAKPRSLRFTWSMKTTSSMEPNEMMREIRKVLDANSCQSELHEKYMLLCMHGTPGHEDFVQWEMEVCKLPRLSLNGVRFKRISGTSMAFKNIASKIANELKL
Chain of B1 bradykinin receptor (Homo sapiens) (P46663 whole entry): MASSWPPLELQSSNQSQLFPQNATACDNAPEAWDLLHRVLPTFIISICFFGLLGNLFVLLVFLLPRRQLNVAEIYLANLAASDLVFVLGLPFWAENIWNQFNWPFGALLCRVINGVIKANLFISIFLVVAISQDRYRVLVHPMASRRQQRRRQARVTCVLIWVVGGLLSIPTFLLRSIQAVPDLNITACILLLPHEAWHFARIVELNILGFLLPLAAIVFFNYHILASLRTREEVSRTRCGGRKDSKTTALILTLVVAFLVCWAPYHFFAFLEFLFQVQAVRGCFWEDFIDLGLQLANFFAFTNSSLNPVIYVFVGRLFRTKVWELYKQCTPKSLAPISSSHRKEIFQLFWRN
Chain of Epidermal growth factor receptor (Homo sapiens) (P00533 whole entry): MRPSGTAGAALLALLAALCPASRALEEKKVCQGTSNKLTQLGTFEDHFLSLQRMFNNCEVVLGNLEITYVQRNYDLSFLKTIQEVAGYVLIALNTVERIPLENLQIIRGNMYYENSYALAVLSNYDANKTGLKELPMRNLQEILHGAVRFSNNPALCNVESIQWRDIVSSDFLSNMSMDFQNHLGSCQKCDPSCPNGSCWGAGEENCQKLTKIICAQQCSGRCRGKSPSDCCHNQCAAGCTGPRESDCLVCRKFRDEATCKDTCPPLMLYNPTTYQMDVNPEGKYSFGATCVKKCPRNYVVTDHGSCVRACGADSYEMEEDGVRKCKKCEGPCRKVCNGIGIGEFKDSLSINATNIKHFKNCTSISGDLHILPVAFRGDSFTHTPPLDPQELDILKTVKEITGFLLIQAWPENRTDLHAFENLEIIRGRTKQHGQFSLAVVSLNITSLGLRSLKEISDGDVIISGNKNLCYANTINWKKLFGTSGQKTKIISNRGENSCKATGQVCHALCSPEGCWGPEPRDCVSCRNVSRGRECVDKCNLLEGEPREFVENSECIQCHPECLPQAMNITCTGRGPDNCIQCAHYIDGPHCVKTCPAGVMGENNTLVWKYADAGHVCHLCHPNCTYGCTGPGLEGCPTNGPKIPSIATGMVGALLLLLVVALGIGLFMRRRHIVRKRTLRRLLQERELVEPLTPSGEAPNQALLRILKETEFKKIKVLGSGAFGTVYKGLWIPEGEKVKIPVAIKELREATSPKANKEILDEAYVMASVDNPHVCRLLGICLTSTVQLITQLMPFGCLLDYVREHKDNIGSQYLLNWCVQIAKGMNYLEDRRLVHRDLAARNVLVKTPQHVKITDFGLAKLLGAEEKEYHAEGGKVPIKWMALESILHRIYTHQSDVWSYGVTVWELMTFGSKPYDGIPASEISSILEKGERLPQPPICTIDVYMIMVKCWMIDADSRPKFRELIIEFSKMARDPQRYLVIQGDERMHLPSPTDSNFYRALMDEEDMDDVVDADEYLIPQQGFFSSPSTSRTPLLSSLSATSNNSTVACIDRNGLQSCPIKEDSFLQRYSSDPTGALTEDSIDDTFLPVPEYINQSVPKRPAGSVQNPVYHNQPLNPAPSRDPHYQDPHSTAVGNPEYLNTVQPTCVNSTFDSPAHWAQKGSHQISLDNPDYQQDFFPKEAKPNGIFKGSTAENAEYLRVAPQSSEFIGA
Chain of D(3) dopamine receptor (Homo sapiens) (P35462 whole entry): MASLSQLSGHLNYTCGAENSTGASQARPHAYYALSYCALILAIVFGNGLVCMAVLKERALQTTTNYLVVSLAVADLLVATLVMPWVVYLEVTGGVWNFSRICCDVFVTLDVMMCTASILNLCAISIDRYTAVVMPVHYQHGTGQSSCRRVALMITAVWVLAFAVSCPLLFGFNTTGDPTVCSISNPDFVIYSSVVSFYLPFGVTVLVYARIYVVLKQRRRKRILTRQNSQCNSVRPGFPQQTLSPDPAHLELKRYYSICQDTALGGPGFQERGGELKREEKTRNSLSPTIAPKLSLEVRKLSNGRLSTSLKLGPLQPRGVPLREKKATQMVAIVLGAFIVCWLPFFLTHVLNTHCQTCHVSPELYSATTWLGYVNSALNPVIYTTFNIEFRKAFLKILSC
Chain of Cyclin-dependent kinase 14 (Homo sapiens) (O94921 whole entry): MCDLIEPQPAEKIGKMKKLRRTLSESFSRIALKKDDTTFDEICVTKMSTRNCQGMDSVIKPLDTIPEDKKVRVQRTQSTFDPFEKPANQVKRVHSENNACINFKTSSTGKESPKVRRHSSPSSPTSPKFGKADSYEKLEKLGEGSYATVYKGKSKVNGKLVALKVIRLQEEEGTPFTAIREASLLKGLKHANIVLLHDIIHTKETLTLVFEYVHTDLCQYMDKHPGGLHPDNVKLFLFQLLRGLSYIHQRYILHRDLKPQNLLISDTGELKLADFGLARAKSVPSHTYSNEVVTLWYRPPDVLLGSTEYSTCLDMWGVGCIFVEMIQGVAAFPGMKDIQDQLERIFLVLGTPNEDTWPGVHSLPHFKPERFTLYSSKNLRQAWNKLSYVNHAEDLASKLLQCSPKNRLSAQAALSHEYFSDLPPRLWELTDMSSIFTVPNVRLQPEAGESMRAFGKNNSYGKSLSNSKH
Chain of BDNF/NT-3 growth factors receptor (Homo sapiens) (Q16620 32-822 limits assumed): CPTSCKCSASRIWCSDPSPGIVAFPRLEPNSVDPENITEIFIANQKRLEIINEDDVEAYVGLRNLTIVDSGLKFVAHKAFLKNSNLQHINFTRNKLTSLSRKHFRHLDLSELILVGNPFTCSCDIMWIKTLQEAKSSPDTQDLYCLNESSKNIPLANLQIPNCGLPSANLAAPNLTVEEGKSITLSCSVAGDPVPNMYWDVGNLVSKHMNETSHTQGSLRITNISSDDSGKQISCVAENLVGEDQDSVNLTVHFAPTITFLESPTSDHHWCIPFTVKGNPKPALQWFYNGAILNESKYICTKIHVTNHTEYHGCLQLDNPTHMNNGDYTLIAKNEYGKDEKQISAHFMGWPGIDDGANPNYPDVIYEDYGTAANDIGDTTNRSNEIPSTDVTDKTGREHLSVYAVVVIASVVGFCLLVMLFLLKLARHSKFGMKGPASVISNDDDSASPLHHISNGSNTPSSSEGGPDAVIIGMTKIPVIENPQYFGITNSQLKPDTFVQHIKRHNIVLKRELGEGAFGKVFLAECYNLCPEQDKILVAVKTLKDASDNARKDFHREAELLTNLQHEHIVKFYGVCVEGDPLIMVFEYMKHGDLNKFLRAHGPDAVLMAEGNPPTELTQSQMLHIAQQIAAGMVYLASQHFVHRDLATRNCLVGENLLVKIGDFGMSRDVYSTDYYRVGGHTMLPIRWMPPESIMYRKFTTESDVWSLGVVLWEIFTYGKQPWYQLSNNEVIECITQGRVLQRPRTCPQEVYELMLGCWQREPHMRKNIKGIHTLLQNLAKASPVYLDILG
Chain of Serine/threonine-protein kinase Nek2 (Homo sapiens) (P51955 whole entry): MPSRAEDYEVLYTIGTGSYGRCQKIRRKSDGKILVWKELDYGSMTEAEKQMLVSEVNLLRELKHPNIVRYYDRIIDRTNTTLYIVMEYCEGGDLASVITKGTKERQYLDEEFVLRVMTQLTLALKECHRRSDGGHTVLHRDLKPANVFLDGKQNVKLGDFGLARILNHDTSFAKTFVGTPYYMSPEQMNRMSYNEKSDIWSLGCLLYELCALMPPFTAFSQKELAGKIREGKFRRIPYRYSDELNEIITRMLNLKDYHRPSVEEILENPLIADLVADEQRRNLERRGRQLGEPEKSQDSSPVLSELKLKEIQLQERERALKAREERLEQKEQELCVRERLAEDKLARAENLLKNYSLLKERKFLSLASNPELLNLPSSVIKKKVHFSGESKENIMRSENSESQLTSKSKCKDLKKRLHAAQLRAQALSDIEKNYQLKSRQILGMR
Chain of Protein kinase C iota type (Homo sapiens) (P41743 whole entry): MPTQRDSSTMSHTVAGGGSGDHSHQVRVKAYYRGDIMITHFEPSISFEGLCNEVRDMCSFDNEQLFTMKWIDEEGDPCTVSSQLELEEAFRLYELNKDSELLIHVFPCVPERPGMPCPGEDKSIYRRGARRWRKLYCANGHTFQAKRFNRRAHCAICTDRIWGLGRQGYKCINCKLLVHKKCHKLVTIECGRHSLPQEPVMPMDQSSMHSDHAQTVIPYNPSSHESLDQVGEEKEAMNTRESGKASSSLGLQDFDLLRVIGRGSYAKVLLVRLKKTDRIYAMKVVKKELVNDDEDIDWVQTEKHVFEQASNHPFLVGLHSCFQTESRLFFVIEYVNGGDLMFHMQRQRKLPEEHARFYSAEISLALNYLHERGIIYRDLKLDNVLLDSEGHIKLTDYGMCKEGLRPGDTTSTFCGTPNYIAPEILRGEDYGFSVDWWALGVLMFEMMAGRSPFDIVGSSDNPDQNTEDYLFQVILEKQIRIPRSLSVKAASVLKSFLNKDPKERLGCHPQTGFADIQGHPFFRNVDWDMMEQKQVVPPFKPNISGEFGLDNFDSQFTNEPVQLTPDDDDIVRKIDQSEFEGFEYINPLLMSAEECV

Molecule `CCC(F)(F)c1cc(N2CCC(S(C)(=O)=O)CC2)nc2sc(C(N)=O)c(N)c12` [BI-605906] has a residual activity [1] of 87%, a residual activity [2] of 91% and a residual activity [3] of 97%. For the same molecule, the residual activity [4] was 74.4%, the residual activity [5] was 97% and the residual activity [6] was 102%. For the same molecule, the residual activity [7] was 98%, the residual activity [8] was 91% and the residual activity [9] was 98%. It also gave a residual activity [10] of 100%, a residual activity [11] of 78.4% and a residual activity [12] of 105%. For the same molecule, the residual activity ([13]; Compound concentration 1.0 uM) was 90%, the residual activity ([13]; Compound concentration 10.0 uM) was 87% and the residual activity [14] was 100%. It also gave a residual activity ([15]; Compound concentration 10.0 uM) of 93%, a residual activity ([15]; Compound concentration 100.0 uM) of 108% and an inhibition [16] of 2.13%. The residual activity [17] was 93%, the residual activity [18] was 99% and the residual activity [19] was 67%. The residual activity [20] was 100%, the residual activity [21] was 101% and the residual activity [22] was 93%. For the same molecule, the residual activity [23] was 87%, the residual activity [24] was 56.3% and the residual activity [25] was 92%. For the same molecule, the residual activity [26] was 91%, the residual activity [27] was 103% and the residual activity [28] was 70%. For the same molecule, the residual activity [29] was 99%, the inhibition [30] was 8.33% and the inhibition [31] was -1.66%. The residual activity [32] was 104%, the residual activity [33] was 83% and the residual activity [34] was 96%. It also gave a residual activity [35] of 84%, an inhibition [36] of 51.5% and a residual activity [37] of 93%. It also gave a residual activity ([38]; Compound concentration 1.0 uM) of 99%, a residual activity ([38]; Compound concentration 10.0 uM) of 98% and a residual activity [39] of 105%. For the same molecule, the residual activity [40] was 97%, the residual activity [41] was 95% and the residual activity [42] was 97%. The residual activity ([43]; Compound concentration 1.0 uM) was 99%, the residual activity ([43]; Compound concentration 10.0 uM) was 90% and the residual activity [44] was 86%.
